Legend:
[1] = tested on: AMP-dependent protein kinase (AMPK); conditions: disclosed in U.S. patent application Ser. No. 14/492,547; cited from earlier work
[2] = tested on: wounds of STZ induced diabetic rats; assay: Excisional full-thickness skin wound healing in STZ induced diabetic rats (recovery rate); format: in vivo, Wistar rats
Description: Salsolinol ointments at 0.01 mg/g, 0.03 mg/g, 0.1 mg/g, and 0.3 mg/g were prepared respectively by dissolving 0.5 mg, 1.5 mg, 5 mg, and 15 mg of salsoinol in 2.5 mL of glycerol (Sigma Inc., MO, USA) plus 1.0 mL of Creagel emulsifier (First Chemical, TPE, Taiwan) and 45.5 mL of distilled water. Vehicle was composed of glycerol (2.5 mL), Creagel emulsifier (1.0 mL), and distilled water (45.5 mL).
Swivazin®-HN cream was used as positive control for treating the wounds of STZ induced diabetic rats, which contained asiaticoside (4 mg/g), isolated from Centella asiatica. […]. Ethnopharmacology 65 (1999): 1-11].
Adult male Wistar rats were used at four weeks of age, purchased from BioLASCO Taiwan, and were acclimatized in a room with 12-12 h light (7:00 A.M. to 7:00 P.M.)-dark (7:00 P.M. to 7:00 A.M.) cycle, a temperature of 23±1° C., and a humidity of 65±5%.
Each rat had free access to both water and standard rodent soft chow ad libitum. STZ was injected intraperitoneally at a dose of 65 mg/Kg body weight.
All experimental procedures were approved by and performed in compliance with the guidelines of the Institutional Animal Care and Use Committee (IACUC). All surgeries were conducted while animals were under continuous anesthesia with 4% isoflurane.
The dorsal skin was shaved and then disinfected with 10% povidone-iodine before an excisional full-thickness square-shaped skin wound (1.5×1.5 cm) was induced using a sterile wound maker. Animal was then housed alone in its cage to avoid any further wound damage.
. The groups were administered at the same amount once daily and the wounds were photopictured on Day 1, Day 3, Day 5, Day 7, Day 10, and Day 15 and the sizes of the wounds were analyzed using Visual Basic 6.0. Wound closure at experimental time points was calculated as percentage of initial wound area, called as “recovery rate.”

Compound: CC1NCCc2cc(O)c(O)cc21 (stereo not shown) [salsolinol]
- activation of AMPK [1]: can activate AMP-dependent protein kinase (AMPK)
- recovery rate (in words) ([2]; FIG. 2, salsolinol 0.01 mg/g, Day 7-15): relatively improved recovery rate
- wound closure and healing ([2]; FIG. 2, salsolinol at all the concentrations (0.01, 0.03, 0.1, 0.3 mg/g)): could enhance the wound closure and healing
- recovery rate (wound closure as percentage of initial wound area) ([2]; FIG. 2, salsolinol ointment 0.01 mg/g once daily, topical, Day 15): over 97%
- difference in recovery between D+Salsolinol and Swivazin (DP, positive control) ([2]; FIG. 3): no obvious difference
- recovery rate compared with groups without treatment (DC) or vehicle (DV) ([2]; FIG. 3, D+Salsolinol): significantly increased recovery rate

Compound: COc1ccc(C[C@H]2c3cc(O)c(OC)cc3CCN2C)cc1O [reticuline, reference compound]
- activation of AMPK [1]: can activate AMP-dependent protein kinase (AMPK)
